Assay results: patent US20100249093A1, “Substituted Heteroarylpiperidine Derivatives As Melanocortin-4 Receptor Modulators” (SANTHERA PHARMACEUTICALS (SCHWEIZ) AG, priority 2007, published 2010)

Assays:
[1] = biological target: T1, human melanocortin-4 receptor (MC-4R) (Homo sapiens, UniProt P32245); experiment: Membrane binding assay: competition with fluorescence labeled NDP-alpha-MSH, fluorescence polarization; details: HEK293 cell membrane preparations expressing human MC-4R, read-out: hMC-4R binding assay IC50
T1 construct: expressed in transfected cells; host or cells: HEK293
T1 sequence (P32245 whole entry): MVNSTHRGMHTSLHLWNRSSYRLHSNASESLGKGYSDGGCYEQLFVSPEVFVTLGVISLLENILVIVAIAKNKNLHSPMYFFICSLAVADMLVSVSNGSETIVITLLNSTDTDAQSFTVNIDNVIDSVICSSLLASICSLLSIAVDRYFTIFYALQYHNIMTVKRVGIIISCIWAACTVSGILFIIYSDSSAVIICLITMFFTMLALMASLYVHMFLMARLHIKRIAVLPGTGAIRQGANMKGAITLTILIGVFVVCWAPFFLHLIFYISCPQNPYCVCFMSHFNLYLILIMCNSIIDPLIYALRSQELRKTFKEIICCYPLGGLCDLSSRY

[2] = biological target: T1, human melanocortin-4 receptor (MC-4R); experiment: Functional assay: agonistic activity, cAMP production in membrane preparations compared with NDP-alpha-MSH, fluorescence polarization; assay type: biochemical; details: for Emax: cAMP produced compared to stimulation with NDP-alpha-MSH, read-out: % activation functional assay

Row | IC50 [1] | Emax [2] | EC50 ([2]; cAMP production, membrane preparations from HEK293 cells expressing human MC-4R, read-out: hMC-4R functional assay EC50) | Compound
1 | ≤ 100 nM | -14% | – | CC[C@H](COc1cccnc1C1CCN(C(=O)[C@@H](Cc2ccc(Cl)cc2Cl)NC(=O)N2CCC[C@@H](O)C2)CC1)N(C)C [Example 113]
2 | ≤ 100 nM | -3% | – | CC[C@H](COc1cccnc1C1CCN(C(=O)[C@@H](Cc2ccc(Cl)cc2Cl)NC(=O)N2CC[C@H](CO)C2)CC1)N(C)C [Example 114]
3 | ≤ 100 nM | -8% | – | CC[C@H](COc1cccnc1C1CCN(C(=O)[C@@H](Cc2ccc(Cl)cc2Cl)NC(=O)N2CC[C@@H](CO)C2)CC1)N(C)C [Example 115]
4 | ≤ 100 nM | -1% | – | CC[C@H](COc1cccnc1C1CCN(C(=O)[C@@H](Cc2ccc(Cl)cc2Cl)NC(=O)N2CC[C@@H](O)C2)CC1)N(C)C [Example 116]
5 | ≤ 100 nM | 0% | – | CC[C@H](COc1cccnc1C1CCN(C(=O)[C@@H](Cc2ccc(Cl)cc2Cl)NC(=O)N2CC[C@H](OC(C)=O)C2)CC1)N(C)C [Example 117]
6 | ≤ 100 nM | 11% | – | C#CC1(O)CN(C(=O)N[C@H](Cc2ccc(Cl)cc2Cl)C(=O)N2CCC(c3ncccc3OC[C@@H](CC)N(C)C)CC2)C1 [Example 118]
7 | ≤ 100 nM | 5% | – | CC[C@H](COc1cccnc1C1CCN(C(=O)[C@@H](Cc2ccc(Cl)cc2Cl)NC(=O)N2CC[C@@H](OC(C)=O)C2)CC1)N(C)C [Example 120]
8 | ≤ 100 nM | -6% | – | CC[C@H](COc1cccnc1C1CCN(C(=O)[C@@H](Cc2ccc(Cl)cc2Cl)NC(=O)N2CCC[C@@H]2C(C)(C)O)CC1)N(C)C [Example 121]
9 | ≤ 100 nM | 0% | – | CC[C@H](COc1cccnc1C1CCN(C(=O)[C@@H](Cc2ccc(Cl)cc2Cl)NC(=O)N2CC(O)(C(C)C)C2)CC1)N(C)C [Example 122]
10 | ≤ 100 nM | 3% | – | CC[C@H](COc1cccnc1C1CCN(C(=O)[C@@H](Cc2ccc(Cl)cc2Cl)NC(=O)N2CC(O)(C3CC3)C2)CC1)N(C)C [Example 123]
11 | ≤ 100 nM | -8% | – | CC[C@H](COc1cccnc1C1CCN(C(=O)[C@@H](Cc2ccc(Cl)cc2Cl)NC(=O)N2CCCC(C)(O)C2)CC1)N(C)C (some centres unmarked) [Example 125]
12 | ≤ 100 nM | -8% | – | CC[C@H](COc1cccnc1C1CCN(C(=O)[C@@H](Cc2ccc(Cl)cc2Cl)NC(=O)N2CCC[C@H]2C(C)(C)O)CC1)N(C)C [Example 126]
13 | ≤ 100 nM | -3% | – | CC[C@H](COc1cccnc1C1CCN(C(=O)[C@@H](Cc2ccc(Cl)cc2Cl)NC(=O)N2CC[C@H]2CO)CC1)N(C)C [Example 127]
14 | ≤ 100 nM | -8% | – | CC[C@H](COc1cccnc1C1CCN(C(=O)[C@@H](Cc2ccc(Cl)cc2Cl)NC(=O)N2CCC(O)(C(F)(F)F)C2)CC1)N(C)C (some centres unmarked) [Example 128]
15 | ≤ 100 nM | -5% | – | CC[C@H](COc1cccnc1C1CCN(C(=O)[C@@H](Cc2ccc(Cl)cc2Cl)NC(=O)N2CC(O)(C(F)(F)F)C2)CC1)N(C)C [Example 129]
16 | ≤ 100 nM | -2% | – | CC[C@H](COc1cccnc1C1CCN(C(=O)[C@@H](Cc2ccc(Cl)cc2Cl)NC(=O)N2CCC(O)(CC3CC3)C2)CC1)N(C)C (some centres unmarked) [Example 130]
17 | ≤ 100 nM | -2% | – | CC[C@H](COc1cccnc1C1CCN(C(=O)[C@@H](Cc2ccc(Cl)cc2Cl)NC(=O)N2CC[C@@H](N)C2)CC1)N(C)C [Example 131]
18 | ≤ 100 nM | -4% | – | CC[C@H](COc1cccnc1C1CCN(C(=O)[C@@H](Cc2ccc(Cl)cc2Cl)NC(=O)N2CC[C@@H](N(C)C)C2)CC1)N(C)C [Example 132]
19 | ≤ 100 nM | -6% | – | CC[C@H](COc1cccnc1C1CCN(C(=O)[C@@H](Cc2ccc(Cl)cc2Cl)NC(=O)N(C)C2COC2)CC1)N(C)C [Example 133]
20 | ≤ 100 nM | -2% | – | CC[C@H](COc1cccnc1C1CCN(C(=O)[C@@H](Cc2ccc(Cl)cc2Cl)NC(=O)N(C)CC2(C)COC2)CC1)N(C)C [Example 134]
21 | ≤ 100 nM | 3% | – | CC[C@@H](CN(C)C)Oc1cccnc1C1CCN(C(=O)[C@@H](Cc2ccc(Cl)cc2Cl)NC(=O)N(C)CC)CC1 [Example 135]
22 | ≤ 100 nM | 10% | – | CC[C@@H](CN(C)C)Oc1cccnc1C1CCN(C(=O)[C@@H](Cc2ccc(Cl)cc2Cl)NC(=O)N2CC(O)C2)CC1 [Example 136]
23 | ≤ 100 nM | 8% | – | CC[C@@H](CN(C)C)Oc1cccnc1C1CCN(C(=O)[C@@H](Cc2ccc(Cl)cc2Cl)NC(=O)N2CC[C@H](O)C2)CC1 [Example 137]
24 | ≤ 100 nM | 9% | – | CC[C@@H](CN(C)C)Oc1cccnc1C1CCN(C(=O)[C@@H](Cc2ccc(Cl)cc2Cl)NC(=O)N(C)CCOC)CC1 [Example 138]
25 | ≤ 100 nM | -10% | – | CC[C@@H](CN(C)C)Oc1cccnc1C1CCN(C(=O)[C@@H](Cc2ccc(Cl)cc2Cl)NC(=O)N2CC[C@@H](O)C2)CC1 [Example 139]
26 | ≤ 100 nM | -3% | – | CN1CCC[C@H](Oc2cccnc2C2CCN(C(=O)[C@@H](Cc3ccc(Cl)cc3Cl)NC(=O)N3CC[C@H](O)C3)CC2)C1 [Example 141]
27 | ≤ 100 nM | -32% | ≤ 100 nM | COCCN(C)C(=O)N[C@H](Cc1ccc(Cl)cc1Cl)C(=O)N1CCC(c2ncccc2O[C@H]2CCCN(C)C2)CC1 [Example 142]
28 | ≤ 100 nM | -1% | – | CN1CCC[C@H](Oc2cccnc2C2CCN(C(=O)[C@@H](Cc3ccc(Cl)cc3Cl)NC(=O)N3CC[C@@H](O)C3)CC2)C1 [Example 143]
29 | ≤ 100 nM | 2% | – | CN1CCN(Cc2cc(F)cnc2C2CCN(C(=O)[C@@H](Cc3ccc(Cl)cc3Cl)NC(=O)N3CC(O)C3)CC2)CC1 [Example 144]
